Results taken from patent US11213518B2, “Ligands of the mu, kappa, and delta opioid receptors” (The Board of Trustees of the Leland Stanford Junior …, priority 2017, dated 2022).
“Also recorded” adds a separate entry of the source. Like-named read-outs stand apart in the source and are kept apart here.

Legend:
[1] = target: T1, KOR-1 (Mus musculus, UniProt P33534); assay: Competition binding against 125I-IBNtxA, KOR-1 CHO membranes; details: vs 125I-IBNtxA (0.1 nM), cloned mouse receptor, ± SEM
T1 construct: expressed in transfected cells
Procedure: (§1) FIGS. 7A-7C show competition assays at MOR-1, KOR-1 and DOR-1 against FMP4. Competition studies were performed with FMP4 against ^125I-IBNtxA (0.1 nM) in membranes from CHO cells stably expressing the indicated cloned mouse opioid receptors Each figure is a representative experiment that has been independently replicated at least three times. Error bars represent the SEM of triplicate samples. Error bars that cannot be seen are smaller than the size of the symbol.

[2] = target: T2, DOR-1 (Mus musculus, UniProt P32300); assay: Competition binding against 125I-IBNtxA, DOR-1 CHO membranes; details: vs 125I-IBNtxA (0.1 nM)
T2 construct: expressed in transfected cells
Procedure: as §1

[3] = target: T3, MOR-1 (Mus musculus, UniProt P42866); assay: Competition binding against 125I-IBNtxA, MOR-1 CHO membranes; set-up: expressed in transfected cells; details: vs 125I-IBNtxA (0.1 nM)
[4] = target: T3, MOR-1; assay: Screening of MOR-1 binders, single-dose inhibition of 125IBNtxA specific binding; set-up: expressed in transfected cells; host or cells: CHO cells; details: single dose 10 μM
Text: Each panel is a representative experiment that has been independently replicated at least three times.

[5] = target: T3, MOR-1; assay: [35S]-GTPγS assay in MOR-1 expressing CHO cells; format: biochemical; set-up: expressed in transfected cells; host or cells: CHO cells; details: for Functional character in [35S]GTPγS assay at MOR-1: MOR-1 expressing CHO cells, compared with full agonist DAMGO 100 nM
Text: Results are pooled from 3 independent replications and are expressed as mean±SEM.

[6] = value in μM, read-out: Binding Data-Ki / affinity MOR-1 (μOR)
[7] = cloned mouse receptor, ± SEM, read-out: Binding Data-Ki MOR-1

SMILES	Ki [1] [µM]	Ki ([2]; value in μM) [µM]	Ki [3, 6] [µM]	Ki ([2]; cloned mouse receptor, ± SEM) [µM]	Ki [3, 7] [µM]	inhibition at 10 µM [4] [%]	Antagonism of GTPγS stimulation by 100 nM DAMGO ([5]; FMP4 at 30 μM)	Functional character in [35S]GTPγS assay at MOR-1 [5]	Functional character in [35S]GTPγS assay at MOR-1 ([5]; listed as FMP 4)	Stimulation of GTPγS binding ([5]; doses 1, 10 and 30 μM, ceiling effect, p<0.0001 vs control)
Cc1cccc(C)c1OCCCCCN1CCN(C)CC1 [FMP21]	5.5 ± 4.19	> 30	> 30							
Cc1ccccc1OCCCCCN1CCOCC1 [FMP30]	6.01 ± 2.16			12.8 ± 0.856	11.3 ± 2.26					
Cc1ccccc1OCCCCCCc1c(C)n[nH]c1C [FMP4, 3,5-dimethyl-4-[6-(o-tolyloxy)hexyl]-1H-pyrazole]	2.5 ± 0.523		3.2	8.14 ± 1.4	3.22 ± 0.153	≥ 30	antagonized the GTPγS stimulation of 100 nM DAMGO	weak partial agonism; also recorded: partial agonist	weak MOR-1 partial agonist	stimulates GTPγS binding
Cc1ccc(OCCCCCCc2c(C)n[nH]c2C)cc1 [FMP16, 3,5-dimethyl-4-[6-(p-tolyloxy)hexyl]-1H-pyrazole]	4.92 ± 2.24		< 10	9.06 ± 0.566	1.75 ± 0.492	≥ 30				
Cc1ccccc1OCCCCCN1CCCCC1 [FMP1, 1-piperidino-5-(o-tolyloxy)pentane]	7.39 ± 2.38		< 10	17.9 ± 7.61	0.841 ± 0.242	≥ 30				
COc1cccc(OCCCCCN2CCCCC2)c1 [FMP6]	6.94 ± 1.97	> 30	> 30							
